Patent publication US7223745B2, “Proteasome inhibitors and methods of using the same” (Cephalon, Inc., priority 2003, dated 2007)

Experiments:
[1] = biological target: T1, 20S Human Erythrocyte Proteasome (HEP) (Homo sapiens, UniProt P28074); assay: Chymotrypsin-like activity of 20S Human Erythrocyte Proteasome (HEP), IC50 determination; type: biochemical; conditions: Suc-LLVY-AMC substrate, 15 minutes preincubation at 37° C.
T1 construct: 20S Human Erythrocyte Proteasome (HEP), purchased from Immatics Biotechnologies Inc; purchased Immatics Biotechnologies Inc., Tubingen, Germany; host or cells: human erythrocytes (natural source)
Description: Proteasome chymotrypsin-like activity of compounds of the invention was assayed according to the following procedure.
In 96-well microtiter plates, 20S Human Erythrocyte Proteasome (HEP), purchased from Immatics Biotechnologies Inc., Tubingen, Germany was plated at 0.2 μg/mL (about 0.6 nM catalytic sites) in 0.04% SDS 20 mM Tris buffer. A fluorimetric substrate Suc-LLVY-AMC (succinyl-Leu-Leu-Val-Tyr-7-amido-4-methylcoumarin), purchased from Sigma Inc., St. Louis, Mo., USA was added to a final concentration of 100 μM from a stock solution of 10 mM in dimethylsulfoxide. Reaction volumes were 100 μl per well. After incubation for various periods of time at 37° C., the concentration of free AMC (aminomethylcoumarin) was determined on a Perkin Elmer HTS 7000 Plus microplate reader, excitation 370 nm and emission 465 nm. Proteasome activity was determined under conditions in which substrate hydrolysis increased linearly with time and the change in fluorescence signal was proportional to the concentration of free AMC.
IC50 values are typically defined as the concentration of a compound necessary to produce 50% inhibition of the enzyme's activity. IC50 values are useful indicators of the activity of a compound for its designated use. […] In some embodiments, the inhibitors show some specificity for HEP and the ratio of the IC50 for inhibition of bovine α-chymotrypsin versus the IC50 for inhibition of HEP, i.e, IC50 (α-Chymotripsin)/IC50 (HEP), is greater then about 100.
(§1) Inhibition of the chymotrypsin-like activity of HEP and of bovine α-chymotrypsin was determined by incubating the enzyme with various concentrations of putative inhibitors for 15 minutes at 37° C. (or room temperature for α-chymotrypsin) prior to the addition of substrate. Each experimental condition was evaluated in triplicate, and replicate experiments were performed for the inhibitors described herein.

[2] = tested on: proteasome in Molt-4 cells; assay: Cellular assay for chymotrypsin-like activity of proteasome in Molt-4 cell line, EC50 determination; type: cell-based, human; conditions: MeOSuc-FLF-AFC substrate, 15 minutes preincubation at 37° C., read-out: MOLT4 (EC50)
Description: The chymotrypsin-like activity of proteasome in Molt-4 cells (human leukemia) was assayed according to the following procedure. A brief description of the method was published previously (Harding et al., J. Immunol., 1995, 155, 1767).
Molt-4 cells were washed and resuspended in HEPES-buffered Saline (5.4 mM KCl, 120 mM NaCl, 25 mM Glucose, 1.5 mM MgSO4, 1 mM Na pyruvate, 20 mM Hepes) and plated in 96-well microtiter white plates to a final concentration of 6×10^6 cells/mL. Then various 5× proteasome inhibitor concentrations (or diluted DMSO for controls), prepared from 250×DMSO solutions by diluting 50-fold using HEPES-buffered saline, were added to the plate to a final 1× concentration. After 15 minutes incubation at 37° C., a fluorimetric cell permeable substrate (MeOSuc-FLF-AFC) (methoxysuccinyl-Phe-Leu-Phe-7-amido-4-trifluoromethylcoumarin) purchased from Enzyme Systems Products, catalogue number AFC-88, was added to each well at a final concentration of 25 μM from a stock solution of 20 mM in DMSO. Reaction volumes were 100 μl per well.
The concentration of free AFC was monitored every 1.5 min for 30 min ([…]) on a Polastar Optima, BMG Labtechnologies microplate reader, using an excitation wavelength of 390 nm and emission wavelength of 520 nm. Proteasome activity was determined under conditions in which substrate hydrolysis increased linearly with time and the change in fluorescent signal was proportional to the concentration of free AFC.
EC50 values are typically defined as the concentration of a compound required to produce an inhibition of the enzyme's activity halfway between the minimum and the maximum response (0% and 85–90% respectively for this assay). EC50 values are useful indicators of the activity of a compound for its designated use.
as §1, with “of” for “of the”, “proteasome in Molt-4 cells” for “HEP and of bovine α-chymotrypsin”, “cells” for “the enzyme”, “C.” for “C. (or room temperature for α-chymotrypsin)”

| IC50 [1] | EC50 [2] | SMILES |
| --- | --- | --- |
| < 0.01 µM | < 0.2 µM | CC(C)C[C@H](NC(=O)[C@H](CCCNC(=N)N[N+](=O)[O-])NC(=O)CCCCCCCCCN1C(=O)c2ccccc2C1=O)B(O)O [Example 23] |
| < 0.01 µM | < 2 µM | COC(=O)CCCCCCC(=O)N[C@@H](CCCNC(=N)N[N+](=O)[O-])C(=O)N[C@@H](CC(C)C)B1O[C@@H]2C[C@@H]3C[C@@H](C3(C)C)[C@]2(C)O1 [Example 12] |
| < 0.01 µM | < 0.2 µM | CC(C)C[C@H](NC(=O)[C@H](CCCNC(=N)N[N+](=O)[O-])NC(=O)CCCCCCCCCN1C(=O)c2ccccc2C1=O)B1O[C@@H]2C[C@@H]3C[C@@H](C3(C)C)[C@]2(C)O1 [Example 10, 10-(1,3-Dioxo-1,3-dihydro-isoindol-2-yl)-decanamide, N-[(1S)-1-[[[(1R)-1-[(3aS,4S,6S,7aR)-hexahydro-3a,5,5-trimethyl-4,6-methano-1,3,2-benzodioxaborol-2-yl]-3-methylbutyl]amino]carbonyl]-4-[[imino(nitroamino)methyl]amino]butyl]-;] |
| < 0.01 µM | > 10 µM | COC(=O)CCCCCCC(=O)N[C@@H](CCCNC(=N)N[N+](=O)[O-])C(=O)N[C@@H](CC(C)C)B(O)O [Example 22, Boronic acid, [(1R)-1-[[(2S)-5-[[imino(nitroamino)methyl]amino]-2-[[7-(methoxycarbonyl)heptanoyl]amino]-1-oxopentyl]amino]-3-methylbutyl]] |
| < 0.01 µM | < 0.2 µM | CC(C)C[C@H](NC(=O)[C@H](CCCNC(=N)N[N+](=O)[O-])NC(=O)CCCCCCCCCCCNC(=O)OC(C)(C)C)B1O[C@@H]2C[C@@H]3C[C@@H](C3(C)C)[C@]2(C)O1 [Example 11, 12-[(1,1-dimethylethoxy)carbonylamino]dodecanamide, N-[(1S)-1-[[[(1R)-1-[(3aS,4S,6S,7aR)-hexahydro-3a,5,5-trimethyl-4,6-methano-1,3,2-benzodioxaborol-2-yl]-3-methylbutyl]amino]earbonyl]-4-[[imino(nitroamino)methyl]amino]butyl]-] |
| < 0.01 µM | < 10 µM | CC(C)C[C@H](NC(=O)[C@H](CCCNC(=N)N[N+](=O)[O-])NC(=O)CCCCCCCCCCC#N)B(O)O [Example 20, Boronic acid, [(1R)-1-[[(2S)-5-[[imino(nitroamino)methyl]amino]-2-[(11-Cianoundecanoyl)amino]-1-oxopentyl]amino]-3-methylbutyl]] |
| < 0.1 µM | – | CC(=O)NCCCCCC(=O)N[C@@H](CCCNC(=N)N[N+](=O)[O-])C(=O)N[C@@H](CC(C)C)B1O[C@@H]2C[C@@H]3C[C@@H](C3(C)C)[C@]2(C)O1 [Example 15, 6-(Acetylamino)hexanamide, N-[(1S)-1-[[[(1R)-1-[(3aS,4S,6S,7aR)-hexahydro-3a,5,5-trimethyl-4,6-methano-1,3,2-benzodioxaborol-2-yl]-3-methylbutyl]amino]carbonyl]-4-[[imino(nitroamino)methyl]amino]butyl]] |
| < 0.01 µM | < 0.2 µM | CC(C)C[C@H](NC(=O)[C@H](CCCNC(=N)N[N+](=O)[O-])NC(=O)CCCCCCCCC#N)B1O[C@@H]2C[C@@H]3C[C@@H](C3(C)C)[C@]2(C)O1 [Example 14, 9–Cyanononamide, N-[(1S)-1-[[[(1R)-1-[(3aS,4S,6S,7aR)-hexahydro-3a,5,5-trimethyl-4,6-methano-1,3,2-benzodioxaborol-2-yl]-3-methylbutyl]amino]carbonyl]-4-[[imino(nitroamino)methyl]amino]butyl]] |
| < 0.01 µM | > 10 µM | CC(C)C[C@H](NC(=O)[C@H](CCCNC(=N)N[N+](=O)[O-])NC(=O)CCCCCCCCC#N)B(O)O [Example 21, Boronic acid, [(1R)-1-[[(2S)-5-[[imino(nitroamino)methyl]amino]-2-[(9-Cyanononanoyl)amino]-1-oxopentyl]amino]-3-methylbutyl]] |
| < 0.1 µM | > 10 µM | CCS(=O)(=O)NCCCCCC(=O)N[C@@H](CCCNC(=N)N[N+](=O)[O-])C(=O)N[C@@H](CC(C)C)B1O[C@@H]2C[C@@H]3C[C@@H](C3(C)C)[C@]2(C)O1 [Example 17, 6-(Ethanesulfonylamino)hexanamide, N-[(1S)-1-[[[(1R)-1-[(3aS,4S,6S,7aR)-hexahydro-3a,5,5-trimethyl-4,6-methano-1,3,2-benzodioxaborol-2-yl]-3-methylbutyl]amino]carbonyl]-4-[[imino(nitroamino)methyl]amino]butyl]] |
| < 0.01 µM | < 2 µM | CC(C)C[C@H](NC(=O)[C@H](CCCNC(=N)N[N+](=O)[O-])NC(=O)CCCCCNS(=O)(=O)c1ccccc1)B1O[C@@H]2C[C@@H]3C[C@@H](C3(C)C)[C@]2(C)O1 [Example 18, 6-Benzenesulfonylaminohexanamide, N-[(1S)-1-[[[(1R)-1-[(3aS,4S,6S,7aR)-hexahydro-3a,5,5-trimethyl-4,6-methano-1,3,2-benzodioxaborol-2-yl]-3-methylbutyl]amino]carbonyl]-4-[[imino(nitroamino)methyl]amino]butyl]] |
| < 0.01 µM | < 0.2 µM | CC(C)C[C@H](NC(=O)[C@H](CCCNC(=N)N[N+](=O)[O-])NC(=O)CCCCCCCCCCCN1C(=O)c2ccccc2C1=O)B1O[C@@H]2C[C@@H]3C[C@@H](C3(C)C)[C@]2(C)O1 [Example 16] |
| < 0.01 µM | > 10 µM | CC(=O)NCCCCCC(=O)N[C@@H](CCCNC(=N)N[N+](=O)[O-])C(=O)N[C@@H](CC(C)C)B(O)O [Example 24, Boronic acid, [(1R)-1-[[(2S)-5-[[imino(nitroamino)methyl]amino]-2-[[6-(acetylamino)hexanoyl]amino]-1-oxopentyl]amino]-3-methylbutyl]] |
| < 0.01 µM | < 0.2 µM | CCS(=O)(=O)NCCCCCCCC(=O)N[C@@H](CCCNC(=N)N[N+](=O)[O-])C(=O)N[C@@H](CC(C)C)B1O[C@@H]2C[C@@H]3C[C@@H](C3(C)C)[C@]2(C)O1 [Example 19] |

| SMILES | IC50 [1] | EC50 [2] |
| --- | --- | --- |
| CC(C)C[C@H](NC(=O)[C@H](CCCNC(=N)N[N+](=O)[O-])NC(=O)CCCCCCCCCCC#N)B1O[C@@H]2C[C@@H]3C[C@@H](C3(C)C)[C@]2(C)O1 [Example 13, 11-Cyanoundecanamide, N-[(1S)-1-[[[(1R)-1-[(3aS,4S,6S,7aR)-hexahydro-3a,5,5-trimethyl-4,6-methano-1,3,2-benzodioxaborol-2-yl]-3-methylbutyl]amino]carbonyl]-4-[[imino(nitroamino)methyl]amino]butyl]-.] | < 0.01 µM | < 0.2 µM |
